Assay results published in ChEMBL document CHEMBL1201862, “PubChem BioAssay data set” (2004).
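Cells were grown in 96-well plates and exposed to each compound for 48 hours at five concentrations; endpoints were interpolated linearly between bracketing concentrations, or set to the highest concentration if not reached. The concentration for 50% growth inhibition is given as GI50.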 Calls of active or inactive are those of the source. Rule as the data show it: active = GI50 up to about 1.1 µM and inactive = higher.

Columns and labels:
Assay in all cases: growth of human tumour cells (NCI), 48 h
[1] = tested on: OVCAR-8
[2] = tested on: MDA-N
[3] = tested on: PC-3
[4] = tested on: CAKI-1
[5] = tested on: IGROV-1
[6] = tested on: UACC-257
[7] = tested on: HCT-15
[8] = tested on: KM12
[9] = tested on: NCI-H23
[10] = tested on: RXF 393
[11] = tested on: OVCAR-4
[12] = tested on: SF-268
[13] = tested on: SK-MEL-5
[14] = tested on: SNB-19
[15] = tested on: NCI-H226
[16] = tested on: SN12C
[17] = tested on: MOLT-4
[18] = tested on: U-251
[19] = tested on: Malme-3M
[20] = tested on: HCT-116
[21] = tested on: RPMI-8226
[22] = tested on: SNB-75
[23] = tested on: HT-29
[24] = tested on: EKVX
[25] = tested on: K562
[26] = tested on: A549
[27] = tested on: SF-295
[28] = tested on: ACHN
[29] = tested on: NCI-H522
[30] = tested on: MDA-MB-231
[31] = tested on: SK-MEL-28
[32] = tested on: SK-OV-3
[33] = tested on: BT-549
[34] = tested on: HCC 2998
[35] = tested on: 786-0
[36] = tested on: OVCAR-5
[37] = tested on: LOX IMVI
[38] = tested on: SW-620
[39] = tested on: HL-60
[40] = tested on: NCI-H460
[41] = tested on: DU-145
[42] = tested on: MCF7
[43] = tested on: OVCAR-3
[44] = tested on: COLO 205
[45] = tested on: HOP-62
[46] = tested on: SK-MEL-2
[47] = tested on: A498
[48] = tested on: UO-31
[49] = tested on: Hs-578T
[50] = tested on: NCI/ADR-RES
[51] = tested on: T47D
[52] = tested on: CCRF-CEM
[53] = tested on: MDA-MB-435
[54] = tested on: HOP-92
[55] = tested on: UACC-62
[56] = tested on: M14
[57] = tested on: TK-10
[58] = tested on: SF-539
[59] = tested on: SR

CCCCCc1cc2cc3c(c(O)c2c(=O)[nH]1)C1(CC3)C(=O)c2c(O)c3c(c(O)c2C1=O)C(=O)C(OC)=CC3=O (stereo not given)
GI50 [1]: 622 nM (active) | GI50 [2]: 1300 nM (inactive) | GI50 [3]: 568 nM (active) | GI50 [4]: 259 nM (active) | GI50 [5]: 1280 nM (inactive) | GI50 [6]: 444 nM (active) | GI50 [7]: 388 nM | GI50 [8]: 1260 nM (inactive) | GI50 [9]: 701 nM (active) | GI50 [10]: 877 nM (active) | GI50 [11]: 822 nM (active) | GI50 [12]: 946 nM (active) | GI50 [13]: 640 nM (active) | GI50 [14]: 1080 nM (active) | GI50 [15]: 1450 nM (inactive) | GI50 [16]: 877 nM (active) | GI50 [17]: 560 nM (active) | GI50 [18]: 601 nM (active) | GI50 [19]: 524 nM (active) | GI50 [20]: 433 nM (active) | GI50 [21]: 336 nM (active) | GI50 [22]: 1580 nM (inactive) | GI50 [23]: 718 nM (active) | GI50 [24]: 916 nM (active) | GI50 [25]: 456 nM (active) | GI50 [26]: 845 nM (active) | GI50 [27]: 3010 nM (inactive) | GI50 [28]: 522 nM (active) | GI50 [29]: 359 nM (active) | GI50 [30]: 479 nM (active) | GI50 [31]: 2010 nM (inactive) | GI50 [32]: 2610 nM (inactive) | GI50 [33]: 1080 nM (active) | GI50 [34]: 1050 nM (active) | GI50 [35]: 700 nM (active) | GI50 [36]: 2980 nM (inactive) | GI50 [37]: 662 nM (active) | GI50 [38]: 442 nM (active) | GI50 [39]: 421 nM (active) | GI50 [40]: 863 nM (active) | GI50 [41]: 1050 nM (active) | GI50 [42]: 311 nM (active) | GI50 [43]: 440 nM (active) | GI50 [44]: 206 nM (active) | GI50 [45]: 3610 nM (inactive) | GI50 [46]: 867 nM (active) | GI50 [47]: 2310 nM (inactive) | GI50 [48]: 687 nM (active) | GI50 [49]: 1530 nM (inactive) | GI50 [50]: 1170 nM (inactive) | GI50 [51]: 239 nM (active) | GI50 [52]: 85.9 nM (active) | GI50 [53]: 1490 nM (inactive) | GI50 [54]: 263 nM (active) | GI50 [55]: 1240 nM (inactive) | GI50 [56]: 893 nM (active)

C[n+]1c2ccccc2n2c3ccccc3c(NCc3ccco3)c(C#N)c21
GI50 [1]: 1240 nM (inactive) | GI50 [2]: 1960 nM (inactive) | GI50 [3]: 2230 nM (inactive) | GI50 [4]: 2070 nM (inactive) | GI50 [6]: 3480 nM (inactive) | GI50 [7]: 1050 nM | GI50 [8]: 2790 nM (inactive) | GI50 [9]: 1460 nM (inactive) | GI50 [10]: 1650 nM (inactive) | GI50 [11]: 2820 nM (inactive) | GI50 [12]: 2420 nM (inactive) | GI50 [57]: 1520 nM (inactive) | GI50 [13]: 2780 nM (inactive) | GI50 [14]: 3110 nM (inactive) | GI50 [15]: 2230 nM (inactive) | GI50 [16]: 1230 nM (inactive) | GI50 [17]: 984 nM (active) | GI50 [18]: 2000 nM (inactive) | GI50 [19]: 2430 nM (inactive) | GI50 [20]: 957 nM (active) | GI50 [21]: 546 nM (active) | GI50 [22]: 2020 nM (inactive) | GI50 [23]: 2700 nM (inactive) | GI50 [24]: 2780 nM (inactive) | GI50 [25]: 1490 nM (inactive) | GI50 [26]: 3150 nM (inactive) | GI50 [27]: 2670 nM (inactive) | GI50 [28]: 1460 nM (inactive) | GI50 [29]: 678 nM (active) | GI50 [30]: 2210 nM (inactive) | GI50 [31]: 1990 nM (inactive) | GI50 [32]: 3850 nM (inactive) | GI50 [33]: 18500 nM (inactive) | GI50 [58]: 959 nM (active) | GI50 [34]: 659 nM (active) | GI50 [35]: 1510 nM (inactive) | GI50 [36]: 2120 nM (inactive) | GI50 [37]: 1050 nM (active) | GI50 [38]: 640 nM (active) | GI50 [39]: 3170 nM (inactive) | GI50 [40]: 1100 nM (active) | GI50 [41]: 3090 nM (inactive) | GI50 [42]: 575 nM (active) | GI50 [43]: 2700 nM (inactive) | GI50 [44]: 1670 nM (inactive) | GI50 [45]: 1460 nM (inactive) | GI50 [46]: 2000 nM (inactive) | GI50 [47]: 6080 nM (inactive) | GI50 [48]: 1220 nM (inactive) | GI50 [49]: 2960 nM (inactive) | GI50 [50]: 2200 nM (inactive) | GI50 [51]: 3670 nM (inactive) | GI50 [53]: 1760 nM (inactive) | GI50 [54]: 5940 nM (inactive) | GI50 [55]: 2840 nM (inactive) | GI50 [56]: 2300 nM (inactive)

CCNC(=S)NNC(=O)c1ccccc1Nc1ccccc1C(=O)NNC(=S)NCC
GI50 [1]: > 100000 nM (inactive) | GI50 [2]: > 100000 nM (inactive) | GI50 [3]: > 100000 nM (inactive) | GI50 [5]: > 100000 nM (inactive) | GI50 [7]: > 100000 nM | GI50 [8]: > 100000 nM (inactive) | GI50 [9]: > 100000 nM (inactive) | GI50 [11]: > 100000 nM (inactive) | GI50 [57]: > 100000 nM (inactive) | GI50 [13]: > 100000 nM (inactive) | GI50 [14]: > 100000 nM (inactive) | GI50 [15]: > 100000 nM (inactive) | GI50 [16]: > 100000 nM (inactive) | GI50 [17]: > 100000 nM (inactive) | GI50 [18]: > 100000 nM (inactive) | GI50 [19]: > 100000 nM (inactive) | GI50 [20]: > 100000 nM (inactive) | GI50 [21]: > 100000 nM (inactive) | GI50 [22]: > 100000 nM (inactive) | GI50 [23]: > 100000 nM (inactive) | GI50 [24]: > 100000 nM (inactive) | GI50 [25]: > 100000 nM (inactive) | GI50 [26]: > 100000 nM (inactive) | GI50 [27]: > 100000 nM (inactive) | GI50 [28]: > 100000 nM (inactive) | GI50 [29]: > 100000 nM (inactive) | GI50 [30]: > 100000 nM (inactive) | GI50 [31]: > 100000 nM (inactive) | GI50 [32]: > 100000 nM (inactive) | GI50 [59]: > 100000 nM (inactive) | GI50 [33]: > 100000 nM (inactive) | GI50 [34]: > 100000 nM (inactive) | GI50 [35]: > 100000 nM (inactive) | GI50 [36]: > 100000 nM (inactive) | GI50 [37]: > 100000 nM (inactive) | GI50 [38]: > 100000 nM (inactive) | GI50 [39]: > 100000 nM (inactive) | GI50 [40]: > 100000 nM (inactive) | GI50 [41]: > 100000 nM (inactive) | GI50 [42]: > 100000 nM (inactive) | GI50 [43]: > 100000 nM (inactive) | GI50 [44]: > 100000 nM (inactive) | GI50 [45]: > 100000 nM (inactive) | GI50 [46]: > 100000 nM (inactive) | GI50 [48]: > 100000 nM (inactive) | GI50 [49]: > 100000 nM (inactive) | GI50 [50]: > 100000 nM (inactive) | GI50 [51]: > 100000 nM (inactive) | GI50 [52]: > 100000 nM (inactive) | GI50 [53]: > 100000 nM (inactive) | GI50 [54]: > 100000 nM (inactive) | GI50 [55]: > 100000 nM (inactive) | GI50 [56]: > 100000 nM (inactive)
